Measurements reported in PubChem BioAssay (NCI).
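How tested: cells in 96-well plates exposed to compound for 48 hours at five concentrations. Abbreviation: GI50, concentration required for 50% inhibition of growth. TGI is the concentration that stops growth completely.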

Key:
Assay in all cases: NCI-60 cell line screen, 48 h
A549 NSCLC = system: A549 NSCLC
NCI-H522 lung = system: NCI-H522 lung
HL-60(TB) leukemia = system: HL-60(TB) leukemia
MDA-MB-435 = system: MDA-MB-435
MALME-3M melanoma = system: MALME-3M melanoma
SK-MEL-2 melanoma = system: SK-MEL-2 melanoma
UACC-257 melanoma = system: UACC-257 melanoma
786-0 renal = system: 786-0 renal
SF-539 CNS = system: SF-539 CNS
A498 renal = system: A498 renal

Row | SMILES | GI50 (A549 NSCLC) | TGI (A549 NSCLC) | GI50 (NCI-H522 lung) | TGI (NCI-H522 lung) | GI50 (HL-60(TB) leukemia) | TGI (HL-60(TB) leukemia) | GI50 (MDA-MB-435) | TGI (MDA-MB-435) | GI50 (MALME-3M melanoma) | TGI (MALME-3M melanoma) | GI50 (SK-MEL-2 melanoma) | TGI (SK-MEL-2 melanoma) | GI50 (UACC-257 melanoma) | TGI (UACC-257 melanoma) | GI50 (786-0 renal) | TGI (786-0 renal) | GI50 (SF-539 CNS) | TGI (SF-539 CNS) | GI50 (A498 renal) | TGI (A498 renal)
1 | Cc1ccc(C(=NN=C(N)N)c2ccc(C)cc2)cc1 | 0.451 µM | 7.09 µM | 0.335 µM | 1.19 µM | 0.214 µM | 0.685 µM | 0.199 µM | 0.471 µM | 0.388 µM | 1.91 µM | 0.78 µM | 2.94 µM | 0.498 µM | 2.07 µM | 0.623 µM | 2.86 µM | 2.1 µM | 6.99 µM | 0.395 µM | 2.61 µM
2 | O=C(c1cccc(O)c1O)c1cn(Cc2ccc(F)cc2)c2cccc(O)c12 | 3.31 µM | 16.7 µM | 1.38 µM | 8.08 µM | 1.36 µM | 6.93 µM | 5.23 µM | 36.3 µM | 4.83 µM | 22 µM | 7.93 µM | 23.2 µM | 4.44 µM | 14.3 µM | 7.46 µM | 20.8 µM | 2.49 µM | 11.2 µM | 12.9 µM | 25.6 µM
3 | CC(=O)OC1Oc2ccccc2-c2oc(=O)c(-c3cc4ccc(N(C)C)cc4oc3=O)cc21 (stereo not drawn) | 12.5 µM | 36.9 µM | 11.9 µM | 30.6 µM | 8.16 µM | > 100 µM | 13.3 µM | 46.8 µM | 3.7 µM | 11.1 µM | 8.61 µM | 29.9 µM | 10.2 µM | 43.3 µM | 15.7 µM | 39.3 µM | 12.4 µM | 27.3 µM | 6.91 µM | 26.5 µM
4 | CCS(=O)(=O)c1ccc(OC)c(Nc2ncc(-c3cccc(OC)c3)o2)c1 | 8.75 µM | > 25 µM | 8.58 µM | 22.5 µM | 16.4 µM | > 25 µM | 18.2 µM | > 25 µM | > 25 µM | > 25 µM | 13.2 µM | > 25 µM | > 22.2 µM | > 25 µM | 9.57 µM | > 25 µM | 6.96 µM | > 25 µM | 0.728 µM | 4.28 µM
5 | COc1ccc(C(C)c2cc3c(cc2OC)OCO3)cc1 (stereo not drawn) | – | > 100 µM | – | 0.438 µM | – | 2.87 µM | – | 0.214 µM | – | 52.2 µM | – | 2.49 µM | – | > 75.5 µM | – | > 53.4 µM | – | 0.275 µM | – | > 100 µM
6 | CCN(CC)CCCC(C)Nc1c(C)cnc2cc(Cl)c(C)cc12 (stereo not drawn) | 15.1 µM | 30 µM | 23 µM | 53.1 µM | 3.19 µM | 21.2 µM | 7.8 µM | 20.1 µM | 14.9 µM | 29.7 µM | 20.4 µM | > 70.6 µM | 18.2 µM | 34.4 µM | 10.8 µM | 23 µM | 6.83 µM | 21.1 µM | 16.6 µM | 31.4 µM
7 | COc1ccc(C(=O)COc2cccc(/C=C3\COc4ccc5ccccc5c4C3=O)c2)cc1 | > 100 µM | > 100 µM | 8.13 µM | > 100 µM | 2.07 µM | 6.83 µM | 4.08 µM | 41.3 µM | 10.2 µM | > 100 µM | 5.83 µM | > 100 µM | 39.7 µM | > 100 µM | 57.4 µM | > 100 µM | 13.3 µM | > 100 µM | 12.2 µM | 87 µM
8 | CCN(CC)c1sc(N(CC)CC)c2c1SSSSS2 | 1.84 µM | 3.64 µM | 0.416 µM | – | 3.08 µM | > 100 µM | 0.844 µM | 2.09 µM | 1.59 µM | 3.45 µM | 3.02 µM | 14.6 µM | 1.79 µM | 4.08 µM | 1.2 µM | 3.09 µM | 0.995 µM | 2.63 µM | 2.03 µM | 3.54 µM
9 | CN(C)CCNC(=O)c1cccc(C(=O)Nc2ccccc2)c1[N+](=O)[O-] | – | > 100 µM | – | > 100 µM | – | > 100 µM | – | > 100 µM | – | > 100 µM | – | > 100 µM | – | > 100 µM | – | > 100 µM | – | > 100 µM | – | > 100 µM
10 | C[N+](C)(C)CC1CCCC(C[N+](C)(C)C)C1=O (stereo not drawn) | – | 40.6 µM | – | 53.2 µM | – | 2.22 µM | – | 3.43 µM | – | 0.487 µM | – | 3.29 µM | – | 1.48 µM | – | 2.38 µM | – | 8.8 µM | – | 20.2 µM
11 | COc1ccc(C(=O)c2cc(C)c(OC)c(C)c2)c(OC)c1N(C(=O)C(Cl)Cl)C(=O)C(Cl)Cl | 0.0804 µM | > 100 µM | 0.0322 µM | – | 0.0306 µM | 0.0956 µM | 0.021 µM | 0.0625 µM | 0.129 µM | > 100 µM | 0.0669 µM | > 100 µM | > 69.4 µM | > 100 µM | 0.0455 µM | > 100 µM | 0.0343 µM | 0.206 µM | < 0.0156 µM | 0.0736 µM
